Data set [1] can be described thus: Solubility/dispersibility of retinol in the Labrasol-HPGCD-water microemulsion system. The following applies: final retinol concentration 1.2%; 15% Labrasol, 5% HPGCD in water. The class given is physicochemical.
Text: Any two components (examples: Labrasol®-water, HPXCD-water, or Labrasol®-HPXCD) were mixed (in different ratios) in different scintillation vials and then the third component was titrated to each vial until a clear-to-turbid or turbid-to-clear transition occurred (in simple situations). Finally wt % percentages data for each component (Labrasol®, water, and cyclodextrin) were plotted to construct the ternary phase diagram.
Cyclodextrin used: hydroxypropyl-X-cyclodextrin (X=alpha, beta, or gamma).
Drug can be dissolved in the individual components or any of the two-component combination systems, followed by microemulsion formulation. Alternatively Drug can be directly added to the previously prepared microemulsion phase followed by shaking until a clear solution is achieved (when the achievable drug concentration is known previously).
The conditions of data set [2]: cited from earlier work.

Here are results for one compound from patent US9018236B2, “Cyclodextrin-based microemulsions, and dermatological uses thereof” (Precision Dermatology, Inc., priority 2012, dated 2015).

Structures are written as SMILES.

As to `CC1=C(/C=C/C(C)=C/C=C/C(C)=C/CO)C(C)(C)CCC1` [Retinol], in data set [1], the “miscibility in Labrasol-HPGCD-water microemulsion system” value is recorded as “complete miscibility”. Further, the miscibility in water entry in data set [2] is “immiscible”.
